# Values of other authors as cited in US20210253651A1, “METHOD FOR PRODUCING ORGANIC COMPOUND-ENCAPSULATING FERRITIN” (Ajinomoto Co., Inc., priority 2018, published 2021).
# Structures can show the parent of a compound that is named as a salt.
# Settings: room temperature; cited from earlier work
structure (smiles),measurement,value
"COc1cccc2c1C(=O)c1c(O)c3c(c(O)c1C2=O)C[C@@](O)(C(=O)CO)C[C@@H]3OC1CC(N)C(O)C(C)O1 (stereo partly shown) [DOX, Doxorubicin hydrochloride]",solubility of DOX in water,≥ 60 mg/mL
